# Test results: PMC11350868, “A Novel Bacitracin-like Peptide from Mangrove-Isolated Bacillus paralicheniformis NNS4-3 against MRSA and Its Genomic Insights” (Antibiotics, 2024)
# Where two headings read alike, the source gives them in different places. Non-standard residues stand in square brackets, D forms with d. No end group written: not given here. Orn = NCCC[C@H](N)C(=O)O
# Columns and labels:
# [1] = test system: MRSA strain 1096; test: Agar well diffusion assay; format: cell-based, Staphylococcus aureus; details: 100 µL CFS of 3-day culture in 9 mm wells, controls 30 µg, MH agar, 37 °C, 18 h, mean ± SD, n = 3
# Experimental: (§1) The active isolates from the agar overlay assay were inoculated in broth. The types of broth media were the same as those used during the initial isolation. The liquid cultures were incubated at 30 °C with shaking at 150 rpm for 18 h. The optical density of the starter culture was adjusted to a turbidity of 0.1 OD at 625 nm with 0.85% sterile NaCl solution before transferring 1 mL of the culture into 49 mL of fresh broth. The inoculum was then incubated at 30 °C and 150 rpm for 3 days. The cell-free supernatant (CFS) was collected by centrifugation at 10,000× g at 4 °C for 15 min and filtered using a 0.2 µm sterile cellulose acetate syringe filter (Sigma-Aldrich, Warren, MI, USA). The antibacterial activity of the isolates was studied using S. aureus TISTR 517, obtained from the Thailand Institute of Scientific and Technological Research (TISTR), Thailand. The three strains of MRSA (strains 142, 1096, and 2468) were kindly provided by the medical technology laboratory of the School of Allied Health Sciences, Walailak University, Thailand. The pathogenic bacteria were incubated at 37 °C for 18 h on MH agar. The microbial indicators were prepared to a turbidity equivalent to 0.1 OD at 625 nm before being spread on MH agar. The CFS of 100 µL was aseptically transferred to 9 mm diameter wells, followed by an incubation period at 37 °C for 18 h. Cefoxitin (30 µg) and vancomycin (30 µg) (Sigma-Aldrich Co., St. Louis, MO, USA) were employed as positive controls. The experiment was conducted in triplicate and the mean ± SD of the diameters of the inhibition zones was measured.
# (§2) The sample was incubated at 30 °C with shaking at 150 rpm for 7 days. The OD at 625 nm of the inoculum was measured and the CFS was collected at 0, 4, 8, 12, 16, 20, and 24 h on the first day of incubation and then once a day until the seventh day of incubation. The bacterial growth was observed by measuring OD at 625 nm and the collected CFS at all time points was evaluated for antibacterial activity using the agar well diffusion assay against S. aureus TISTR 517 and three strains of MRSA. The experiment was performed in triplicate. […] The kinetics of the antimicrobial compounds’ production curve with mean ± SD were presented.
# [2] = test system: MRSA strain 142; test: Agar well diffusion assay; format: cell-based, Staphylococcus aureus; details: 100 µL CFS of 3-day culture in 9 mm wells, controls 30 µg, MH agar, 37 °C, 18 h, mean ± SD, n = 3
# Experimental: as §1, §2
# [3] = test system: MRSA strain 2468; test: Agar well diffusion assay; format: cell-based, Staphylococcus aureus; details: 100 µL CFS of 3-day culture in 9 mm wells, controls 30 µg, MH agar, 37 °C, 18 h, mean ± SD, n = 3
# Experimental: as §1, §2
# [4] = test system: S. aureus TISTR 517; test: Agar well diffusion assay; format: cell-based, Staphylococcus aureus; details: 100 µL CFS of 3-day culture in 9 mm wells, controls 30 µg, MH agar, 37 °C, 18 h, mean ± SD, n = 3
# Experimental: as §1, §2
# [5] = test system: MRSA strain 1096; test: microbe, parasite or virus in culture; format: cell-based, Staphylococcus aureus; details: Staphylococcus aureus, MRSA, 24 h
# Experimental: (§3) The MIC and MBC of the purified peptide of NNS4-3 were determined against various strains of S. aureus. The broth microdilution method followed the guidance provided by the Clinical and Laboratory Standards Institute (CLSI). Pathogenic bacteria, such as S. aureus TISTR 517 and MRSA strains 142, 1096, and 2468, were used as test strains and cultured on MH agar at 37 °C for 18 h. A single colony of each tested bacterium was suspended in 0.85% NaCl until its turbidity reached an OD of 0.1 at 625 nm (1 × 10^8 CFU/mL). The bacterial cells were diluted to 5 × 10^6 CFU/mL using cation-adjusted Mueller Hinton broth (CAMHB). The diluted cell suspension (10 µL) was transferred to each well of a 96-well plate. With a total volume of 100 µL in each well, the purified AMP was added to each well to obtain final concentrations between 0.125 and 64 µg/mL. Standard antibiotics (vancomycin and cefoxitin) and antibiotic-free samples were used as positive and negative controls, respectively. The 96-well plate was incubated at 37 °C for 24 h. The experiment was carried out in triplicate for each strain. […] Subsequently, 100 µL of each dilution was spread on MH agar and then incubated at 37 °C for 24 h. The MBC was identified as the lowest concentration at which no bacterial colony growth was observed on the plate.
# [6] = test system: MRSA strain 142; test: microbe, parasite or virus in culture; format: cell-based, Staphylococcus aureus; details: Staphylococcus aureus, MRSA, 24 h
# Experimental: as §3
# [7] = test system: MRSA strain 2468; test: microbe, parasite or virus in culture; format: cell-based, Staphylococcus aureus; details: Staphylococcus aureus, MRSA, 24 h
# Experimental: as §3
# [8] = test system: S. aureus TISTR 517; test: microbe, parasite or virus in culture; format: cell-based, Staphylococcus aureus; details: Staphylococcus aureus
# Experimental: as §3
# [9] = test system: MRSA strain 2468; test: SEM of treated cells (morphological changes); format: cell-based, Staphylococcus aureus; details: 1× MIC, 18 h incubation, 20,000× magnification
# Experimental: (§4) The treatment effect of NNS4-3 AMP on tested bacterial cells was investigated by observing morphological changes under SEM. S. aureus TISTR 517 and MRSA strain 2468 were precultured in MH broth for 18 h before being centrifuged to harvest the cell pellet. Cell pellets of both strains were washed with 0.85% sterile NaCl solution 3 times to remove exopolysaccharide. The washed cells were then dispersed in CAMHB to adjust cell turbidity to 0.1 OD at 625 nm. The prepared cells were diluted to 5 × 10^5 CFU/mL with CAMHB before being treated with NNS4-3 AMP. […] The sample for SEM micrography was prepared by fixing the bacterial sample in 2.5% glutaraldehyde in 0.1 M phosphate buffer pH 7.2 for 24 h before ethanol dehydration of the sample. The complete ethanol removal from the prepared sample was conducted by a critical point drying machine (Quorum Technologies Ltd., Lewes, East Sussex, UK).
# [10] = test system: S. aureus TISTR 517; test: SEM of treated cells (morphological changes); format: cell-based, Staphylococcus aureus; details: 1× MIC, 18 h incubation, 20,000× magnification
# Experimental: as §4
# [11] = test system: Bacillus paralicheniformis NNS4-3; test: Antibiotic susceptibility test of NNS4-3 (disc diffusion); format: cell-based; details: disc diffusion on MH agar, 30 °C, 24 h, triplicate; result in words (Figure S1)
# Experimental: The susceptibility of NNS4-3 to the standard antibiotics was studied by a disc diffusion assay. The isolate was inoculated at 30 °C with shaking at 150 rpm for 24 h in ZM broth. The culture was adjusted to 0.1 OD at 625 nm before being spread onto the MH agar. The antibiotic discs (Oxoid Ltd., Hampshire, UK) of ciprofloxacin (5 µg), piperacillin (100 µg) combined with tazobactam (10 µg), imipenem (10 µg), ceftriaxone (30 µg), cefoxitin (30 µg), doxycycline (30 µg), vancomycin (30 µg), erythromycin (15 µg), and gentamicin (10 µg) were placed on the culture-seeded agar and then incubated at 30 °C for 24 h. The susceptibility tests were conducted in triplicate. The inhibition zones were presented as mean ± SD.
# [12] = test system: MSSA strain RN4420; details: ref [41]; cited from earlier work
# From the text: The literature search could support the observed difference in MIC between MSSA and MRSA strains.
# [13] = test system: MRSA strain MW2; details: ref [41]; cited from earlier work
# [14] = bacitracin from Bacillus paralicheniformis UBBLi30, ref [42], cited from earlier work
# [15] = broth microdilution, CAMHB, 37 °C, 0.125-64 µg/mL, triplicate, read-out: MIC
compound,measurement,setting,value
CO[C@@]1(NC(=O)Cc2cccs2)C(=O)N2C(C(=O)O)=C(COC(N)=O)CS[C@@H]21 [Cefoxitin],Zone of Inhibition,[1],0.00 ± 0.00 mm
same,Zone of Inhibition,[2],0.00 ± 0.00 mm
same,Zone of Inhibition,[3],0.00 ± 0.00 mm
same,Zone of Inhibition,[4],35.87 ± 0.46 mm
same,MIC,[5]; [15],> 64 µg/mL
same,MIC,[6]; [15],> 64 µg/mL
same,MIC,[7]; [15],> 64 µg/mL
same,MIC,"[8]; TISTR517, broth microdilution, CAMHB, 37 °C, 24 h, 0.125-64 µg/mL, triplicate, read-out: MIC",2 µg/mL
same,MBC,"[8]; TISTR517, plated on MH agar after MIC, 37 °C, 24 h, triplicate, read-out: MBC",2 µg/mL
same,morphological changes under SEM,[9],good tolerance
same,morphological changes under SEM,[10],cellular lysis
same,antibiotic susceptibility of the NNS4-3 isolate,[11],moderate to high susceptibility
CN[C@H](CC(C)C)C(=O)N[C@H]1C(=O)N[C@@H](CC(N)=O)C(=O)N[C@H]2C(=O)N[C@H]3C(=O)N[C@H](C(=O)N[C@H](C(=O)O)c4cc(O)cc(O)c4-c4cc3ccc4O)[C@H](O)c3ccc(c(Cl)c3)Oc3cc2cc(c3O[C@@H]2O[C@H](CO)[C@@H](O)[C@H](O)[C@H]2O[C@H]2C[C@](C)(N)[C@H](O)[C@H](C)O2)Oc2ccc(cc2Cl)[C@H]1O [Vancomycin],Zone of Inhibition,[1],24.38 ± 0.51 mm
same,Zone of Inhibition,[2],24.13 ± 1.27 mm
same,Zone of Inhibition,[3],24.64 ± 1.02 mm
same,Zone of Inhibition,[4],23.37 ± 1.27 mm
same,MBC,[5],2 µg/mL
same,MIC,[5],2 µg/mL
same,MBC,[6],2 µg/mL
same,MIC,[6],2 µg/mL
same,MBC,[7],2 µg/mL
same,MIC,[7],2 µg/mL
same,MBC,"[8]; TISTR517, 24 h",2 µg/mL
same,MIC,"[8]; TISTR517, 24 h",2 µg/mL
same,morphological changes under SEM,[9],irregular shape
same,morphological changes under SEM,[10],cellular lysis
same,antibiotic susceptibility of the NNS4-3 isolate,[11],moderate to high susceptibility
CO/N=C(\C(=O)N[C@@H]1C(=O)N2C(C(=O)O)=C(CSc3nc(=O)c(=O)[nH]n3C)CS[C@H]12)c1csc(N)n1 [ceftriaxone],antibiotic susceptibility of the NNS4-3 isolate,[11],tolerated
O=C(O)c1cn(C2CC2)c2cc(N3CCNCC3)c(F)cc2c1=O [ciprofloxacin],antibiotic susceptibility of the NNS4-3 isolate,[11],high potency inhibition
C[C@H]1c2cccc(O)c2C(=O)C2=C(O)[C@]3(O)C(=O)C(C(N)=O)=C(O)[C@@H](N(C)C)[C@@H]3[C@@H](O)[C@@H]21 [doxycycline],antibiotic susceptibility of the NNS4-3 isolate,[11],moderate to high susceptibility
CC[C@H]1OC(=O)[C@H](C)[C@@H](O[C@H]2C[C@@](C)(OC)[C@@H](O)[C@H](C)O2)[C@H](C)[C@@H](O[C@@H]2O[C@H](C)C[C@H](N(C)C)[C@H]2O)[C@](C)(O)C[C@@H](C)C(=O)[C@H](C)[C@@H](O)[C@]1(C)O [erythromycin],antibiotic susceptibility of the NNS4-3 isolate,[11],highest susceptibility
CNC(C)C1CCC(N)C(OC2C(N)CC(N)C(OC3OCC(C)(O)C(NC)C3O)C2O)O1 (stereo not shown) [gentamicin],antibiotic susceptibility of the NNS4-3 isolate,[11],moderate to high susceptibility
C[C@@H](O)[C@H]1C(=O)N2C(C(=O)O)=C(SCCN=CN)C[C@H]12 [imipenem],antibiotic susceptibility of the NNS4-3 isolate,[11],high potency inhibition
"LCLEIK[Orn]IFHDN [bacitracin, AMP constructed by non-ribosomal peptide synthesis; literature values]",MIC,[12],64 µg/mL
same,MIC,[13],32 µg/mL
same,activity after autoclaving,[14]; autoclaving for 15 min,80%
same,activity at pH 14,"[14]; pH 14, 1 h",lost
